Each structure is given as a SMILES string. Peptide text beside a SMILES is read from it.

One assay addresses T1, CRF1R (Homo sapiens, UniProt P34998).
T1 sequence (P34998 24-415): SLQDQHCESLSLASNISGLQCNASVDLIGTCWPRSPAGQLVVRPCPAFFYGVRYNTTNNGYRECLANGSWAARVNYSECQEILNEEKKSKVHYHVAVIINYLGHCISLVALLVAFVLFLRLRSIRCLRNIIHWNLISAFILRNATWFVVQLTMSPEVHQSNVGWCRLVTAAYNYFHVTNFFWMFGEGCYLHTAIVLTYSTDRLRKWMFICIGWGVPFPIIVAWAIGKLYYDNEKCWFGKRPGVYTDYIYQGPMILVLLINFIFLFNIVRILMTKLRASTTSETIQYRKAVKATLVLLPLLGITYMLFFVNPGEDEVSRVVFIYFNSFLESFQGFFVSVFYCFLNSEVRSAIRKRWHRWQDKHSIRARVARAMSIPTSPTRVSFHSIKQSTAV
Kind of assay: CRF1R agonist activation (EC50 / Emax), called comparative CRF binding. Type of assay: cell-based. The note with it: for EC50: read-out: CRF1R EC50; for Emax: read-out: CRF1R Emax. The procedure, abridged:
(§1)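 Receptor-expressing cells are contacted with test peptide or the vehicle it is dissolved in. Lysates are then assayed for cAMP, or expression of a CRE-coupled reporter is quantitated. Engineered cells carrying receptor-G-protein fusions may replace full-length receptors.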

The target in a further assay is T2, CRF2R (Homo sapiens, UniProt Q13324).
T2 sequence (Q13324 1-411): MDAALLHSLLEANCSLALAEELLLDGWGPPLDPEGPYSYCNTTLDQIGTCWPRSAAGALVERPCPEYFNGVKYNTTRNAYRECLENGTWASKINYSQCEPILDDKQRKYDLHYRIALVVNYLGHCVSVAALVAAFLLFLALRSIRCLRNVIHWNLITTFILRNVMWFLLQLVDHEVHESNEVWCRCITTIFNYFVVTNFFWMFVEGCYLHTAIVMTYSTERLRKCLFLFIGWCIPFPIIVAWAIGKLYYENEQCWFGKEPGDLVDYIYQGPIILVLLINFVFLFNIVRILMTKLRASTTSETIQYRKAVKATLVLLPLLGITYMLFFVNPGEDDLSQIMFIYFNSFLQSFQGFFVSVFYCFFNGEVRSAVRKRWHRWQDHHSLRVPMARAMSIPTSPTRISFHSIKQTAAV
Kind of assay: CRF2R agonist activation (EC50 / Emax), called comparative CRF binding. It counts as cell-based. The settings on record: for EC50: read-out: CRF2R EC50; for Emax: read-out: CRF2R Emax. The procedure, abridged: as §1

On to `CC[C@H](C)[C@H](N)C(=O)N[C@H](C(=O)N[C@@H](CC(C)C)C(=O)N[C@@H](CO)C(=O)N[C@@H](CC(C)C)C(=O)N[C@@H](CC(=O)O)C(=O)N[C@H](C(=O)N1CCC[C@H]1C(=O)N[C@H](C(=O)NCC(=O)N[C@@H](CC(C)C)C(=O)N[C@@H](CC(C)C)C(=O)N[C@@H](CCC(N)=O)C(=O)N[C@H](C(=O)N[C@@H](CC(C)C)C(=O)N[C@@H](CC(C)C)C(=O)N[C@@H](CCC(=O)O)C(=O)N[C@@H](CCC(N)=O)C(=O)N[C@@H](CCCNC(=N)N)C(=O)N[C@@H](C)C(=O)N[C@@H](C)C(=O)N[C@@H](CCCNC(=N)N)C(=O)N[C@@H](CCC(=O)O)C(=O)N[C@@H](CCC(N)=O)C(=O)N[C@@H](C)C(=O)N[C@H](C(=O)N[C@H](C(=O)N[C@@H](CC(N)=O)C(=O)N[C@@H](C)C(=O)N[C@@H](CCCNC(=N)N)C(=O)N[C@H](C(=O)N[C@@H](CC(C)C)C(=O)N[C@@H](C)C(=O)N[C@@H](CCCNC(=N)N)C(=O)N[C@H](C(N)=O)C(C)C)[C@@H](C)CC)[C@@H](C)O)[C@@H](C)O)[C@@H](C)CC)[C@@H](C)CC)C(C)C)C(C)C` [compound 136] (H-IVLSLDVPIGLLQILLEQRAAREQATTNARILARV-NH2; N-terminus assumed), for which, at CRF1R, the concentration for a half-maximal effect (EC50) was more than 100 nM and the maximal response (Emax) amounted to 8%. Besides, on CRF2R, the 50% effective concentration (EC50) came out at 23.4 nM and the maximal response (Emax) came out at 68%.

Take `CC[C@H](C)[C@H](N)C(=O)N[C@H](C(=O)N[C@@H](CC(C)C)C(=O)N[C@@H](CO)C(=O)N[C@@H](CC(C)C)C(=O)N[C@@H](CC(=O)O)C(=O)N[C@H](C(=O)N1CCC[C@H]1C(=O)N[C@H](C(=O)NCC(=O)N[C@@H](CC(C)C)C(=O)N[C@@H](CC(C)C)C(=O)N[C@@H](CCC(N)=O)C(=O)N[C@H](C(=O)N[C@@H](CC(C)C)C(=O)N[C@@H](CC(C)C)C(=O)N[C@@H](CCC(=O)O)C(=O)N[C@@H](CCC(N)=O)C(=O)N[C@@H](CCCNC(=N)N)C(=O)N[C@@H](C)C(=O)N[C@@H](CCCNC(=N)N)C(=O)N[C@@H](C)C(=O)N[C@@H](C)C(=O)N[C@@H](CCCNC(=N)N)C(=O)N[C@@H](CCC(=O)O)C(=O)N[C@@H](CCC(N)=O)C(=O)N[C@@H](C)C(=O)N[C@H](C(=O)N[C@H](C(=O)N[C@@H](CC(N)=O)C(=O)N[C@@H](C)C(=O)N[C@@H](CCCNC(=N)N)C(=O)N[C@H](C(=O)N[C@@H](CC(C)C)C(=O)N[C@@H](C)C(=O)N[C@@H](CCCNC(=N)N)C(=O)N[C@H](C(N)=O)C(C)C)[C@@H](C)CC)[C@@H](C)O)[C@@H](C)O)[C@@H](C)CC)[C@@H](C)CC)C(C)C)C(C)C` [compound 137] (H-IVLSLDVPIGLLQILLEQRARAAREQATTNARILARV-NH2; N-terminus assumed): the figures for the Emax on CRF1R and on CRF2R were 4% and 100%, respectively.

As to `CC[C@H](C)[C@H](N)C(=O)N[C@H](C(=O)N[C@@H](CC(C)C)C(=O)N[C@@H](CO)C(=O)N[C@@H](CC(C)C)C(=O)N[C@@H](CC(=O)O)C(=O)N[C@H](C(=O)N1CCC[C@H]1C(=O)N[C@H](C(=O)NCC(=O)N[C@@H](CC(C)C)C(=O)N[C@@H](CC(C)C)C(=O)N[C@@H](CCC(N)=O)C(=O)N[C@H](C(=O)N[C@@H](CC(C)C)C(=O)N[C@@H](CC(C)C)C(=O)N[C@@H](CCC(=O)O)C(=O)N[C@@H](CCC(N)=O)C(=O)N[C@@H](C)C(=O)N[C@@H](C)C(=O)N[C@@H](CCCNC(=N)N)C(=O)N[C@@H](CCC(=O)O)C(=O)N[C@@H](CCC(N)=O)C(=O)N[C@@H](C)C(=O)N[C@H](C(=O)N[C@H](C(=O)N[C@@H](CC(N)=O)C(=O)N[C@@H](C)C(=O)N[C@@H](CCCNC(=N)N)C(=O)N[C@H](C(=O)N[C@@H](CC(C)C)C(=O)N[C@@H](C)C(=O)N[C@@H](CCCNC(=N)N)C(=O)N[C@H](C(N)=O)C(C)C)[C@@H](C)CC)[C@@H](C)O)[C@@H](C)O)[C@@H](C)CC)[C@@H](C)CC)C(C)C)C(C)C` [compound 138] (H-IVLSLDVPIGLLQILLEQAAREQATTNARILARV-NH2; N-terminus assumed), on CRF1R, the EC50 was more than 100 nM and the Emax came out at 5%. In addition, at CRF2R, the EC50 was 59 nM and the Emax came to 46%.

In the case of `CC[C@H](C)[C@H](N)C(=O)N[C@H](C(=O)N[C@@H](CC(C)C)C(=O)N[C@@H](CO)C(=O)N[C@@H](CC(C)C)C(=O)N[C@@H](CC(=O)O)C(=O)N[C@H](C(=O)N1CCC[C@H]1C(=O)N[C@H](C(=O)NCC(=O)N[C@@H](CC(C)C)C(=O)N[C@@H](CC(C)C)C(=O)N[C@@H](CCC(N)=O)C(=O)N[C@H](C(=O)N[C@@H](CC(C)C)C(=O)N[C@@H](CC(C)C)C(=O)N[C@@H](CCC(=O)O)C(=O)N[C@@H](CCC(N)=O)C(=O)N[C@@H](C)C(=O)N[C@@H](C)C(=O)N[C@@H](C)C(=O)N[C@@H](CCCNC(=N)N)C(=O)N[C@@H](CCC(=O)O)C(=O)N[C@@H](CCC(N)=O)C(=O)N[C@@H](C)C(=O)N[C@H](C(=O)N[C@H](C(=O)N[C@@H](CC(N)=O)C(=O)N[C@@H](C)C(=O)N[C@@H](CCCNC(=N)N)C(=O)N[C@H](C(=O)N[C@@H](CC(C)C)C(=O)N[C@@H](C)C(=O)N[C@@H](CCCNC(=N)N)C(=O)N[C@H](C(N)=O)C(C)C)[C@@H](C)CC)[C@@H](C)O)[C@@H](C)O)[C@@H](C)CC)[C@@H](C)CC)C(C)C)C(C)C` [compound 139] (H-IVLSLDVPIGLLQILLEQAAAREQATTNARILARV-NH2; N-terminus assumed), on CRF1R, the concentration giving a half-maximal response (EC50) is more than 100 nM and the Emax was 4%. Further, at CRF2R, the EC50 is 42.6 nM and the Emax is 60%.

For the compound `CC[C@H](C)[C@H](N)C(=O)N[C@H](C(=O)N[C@@H](CC(C)C)C(=O)N[C@@H](CO)C(=O)N[C@@H](CC(C)C)C(=O)N[C@@H](CC(=O)O)C(=O)N[C@H](C(=O)N1CCC[C@H]1C(=O)N[C@H](C(=O)NCC(=O)N[C@@H](CC(C)C)C(=O)N[C@@H](CC(C)C)C(=O)N[C@@H](CCC(N)=O)C(=O)N[C@H](C(=O)N[C@@H](CC(C)C)C(=O)N[C@@H](CC(C)C)C(=O)N[C@@H](CCC(=O)O)C(=O)N[C@@H](CCC(N)=O)C(=O)N[C@@H](C)C(=O)N[C@@H](CCCNC(=N)N)C(=O)N[C@@H](C)C(=O)N[C@@H](C)C(=O)N[C@@H](C)C(=O)N[C@@H](CCCNC(=N)N)C(=O)N[C@@H](CCC(=O)O)C(=O)N[C@@H](CCC(N)=O)C(=O)N[C@@H](C)C(=O)N[C@H](C(=O)N[C@H](C(=O)N[C@@H](CC(N)=O)C(=O)N[C@@H](C)C(=O)N[C@@H](CCCNC(=N)N)C(=O)N[C@H](C(=O)N[C@@H](CC(C)C)C(=O)N[C@@H](C)C(=O)N[C@@H](CCCNC(=N)N)C(=O)N[C@H](C(N)=O)C(C)C)[C@@H](C)CC)[C@@H](C)O)[C@@H](C)O)[C@@H](C)CC)[C@@H](C)CC)C(C)C)C(C)C` [compound 141] (H-IVLSLDVPIGLLQILLEQARAAAREQATTNARILARV-NH2), the maximal effect (Emax) at CRF1R was determined as 7%; on CRF2R, 29%.

`CC[C@H](C)[C@H](N)C(=O)N[C@H](C(=O)N[C@@H](CC(C)C)C(=O)N[C@@H](CO)C(=O)N[C@@H](CC(C)C)C(=O)N[C@@H](CC(=O)O)C(=O)N[C@H](C(=O)N1CCC[C@H]1C(=O)N[C@H](C(=O)NCC(=O)N[C@@H](CC(C)C)C(=O)N[C@@H](CC(C)C)C(=O)N[C@@H](CCC(N)=O)C(=O)N[C@H](C(=O)N[C@@H](CC(C)C)C(=O)N[C@H](C(=O)N[C@@H](CCC(=O)O)C(=O)N[C@H](C(=O)N[C@@H](CCC(=O)O)C(=O)N[C@@H](CCCCN)C(=O)N[C@@H](CCC(N)=O)C(=O)N[C@@H](CCC(=O)O)C(=O)N[C@@H](CCCCN)C(=O)N[C@@H](CCC(=O)O)C(=O)N[C@@H](CCCCN)C(=O)N[C@@H](CCC(N)=O)C(=O)N[C@@H](CCC(N)=O)C(=O)N[C@@H](C)C(=O)N[C@@H](C)C(=O)N[C@@H](CC(N)=O)C(=O)N[C@@H](CC(N)=O)C(=O)N[C@@H](CCCNC(=N)N)C(=O)N[C@@H](CC(C)C)C(=O)N[C@@H](CC(C)C)C(=O)N[C@@H](CC(C)C)C(=O)N[C@@H](CC(=O)O)C(=O)N[C@H](C(=O)N[C@H](C(N)=O)[C@@H](C)CC)[C@@H](C)O)[C@@H](C)CC)[C@@H](C)CC)[C@@H](C)CC)[C@@H](C)CC)C(C)C)C(C)C` [compound 154] (H-IVLSLDVPIGLLQILIEIEKQEKEKQQAANNRLLLDTI-NH2; N-terminus assumed): the Emax on CRF1R is 7%; on CRF2R, 100%.

One may read the EC50 as the midpoint of the concentration-response curve. By Emax is commonly meant the greatest response seen or fitted, relative to the assay's reference.
